According to patent US11185548B2, “Inhibitors of cytochrome P450 family 7 subfamily B member 1 (CYP7B1) for use in treating diseases” (HELMHOLTZ ZENTRUM MÜNCHEN—DEUTSCHES FORSCHUNGSZENTRUM FÜR …, priority 2016, dated 2021):
Entries after “also recorded” stand apart in the source; their conditions may differ. Each block holds one compound with its values, some of them ahead of it.

Experiments:
[1] = tested on: IgM cross-linked splenic B cells; experiment: ex vivo B cell migration assay towards medium from CSE treated airways; format: cell-based, mouse; settings: 10% CSE
Method: (§1) Middle and distal airways from C57BL/6J and Ch25h^−/− mice were isolated and incubated ex vivo as described by Yildirim et al. (Eur Respir J 32, 694-704 (2008)). Briefly, after sacrifice by a ketamine-xylazine over dose, the trachea was cannulated, the lungs removed from the thorax and infused with 1% low-melting agarose dissolved in 1:1 Ham's F12 nutrient medium (Sigma-Aldrich) and distilled water (Gibco, Life Technologies). Airways were dissected under a microscope (Zeiss) from the left lung after the agarose had solidified on ice for 30 min. The isolated airways were washed and cultured in airway epithelial cell medium (PromoCell) at 37° C., 5% CO2.
B cells were purified from the spleens of C57BL/6J mice by negative selection (B cell Isolation Kit, mouse, Miltenyi Biotec). For the migration assay, primary mouse airways were isolated 1 day prior, treated with 10% cigarette smoke extract (CSE) in airway epithelial cell culture medium or culture medium alone for 24 h and at the same time to inhibit Cyp7b1, clotrimazole was also diluted with culture medium to a final concentration of 1 μM for 1 h prior to the migration assay. […] The supernatants were transferred as conditioned medium to the lower well of 24-well transwell plates (Permeable Polycarbonate Membrane Inserts, Corning, Fisher Scientific), for inducing B cell migration, while the airway samples were snap frozen in liquid nitrogen for RNA isolation. Freshly isolated B cells at 2.5×10^6/ml in 100 μl were activated by unconjugated AffiniPure F(ab′)2 Fragment Goat anti-mouse IgM, μchain specific antibody (1.3 μg/ml, 115-006-020, Jackson Immunoresearch Laboratories) for 1 hr at 37° C. in 5.0 μm pore sized transwell inserts (Permeable Polycarbonate Membrane Inserts, Corning, Fisher Scientific). Transwell inserts were then placed into the wells of conditioned medium and incubated for 3 hr at 37° C. Migrated B cells were collected and counted by Neubauer Chamber and reported as percentage of input.

Ch25h mRNA = experiment: quantitative real time RT-PCR of CSE treated airways: Ch25h; format: cell-based, mouse; settings: CSE treated airways dissected from C57BL/6 mice, 1 μM clotrimazole
Method: (§2) 1 ug RNA was reverse transcribed using Random Hexamers and MuLV Reverse Transcriptase (Applied Biosystems). Gene expression was analyzed using SensiFAST SYBR Hi-ROX Kit (Bioline) on a StepOnePlus 96 well Real-Time PCR System (Applied Biosystems). Primer sequences can be found in Table 1. Expression of each gene was calculated relative to the housekeeping gene HPRT1 or Hprt1 as 2^−[…]Ct.
as §1
(§3) B cells were purified from the spleens of C57BL/6J mice by negative selection (B cell Isolation Kit, mouse, Miltenyi Biotec). […] Migrated B cells were collected and counted by Neubauer Chamber and reported as percentage of input.

Cyp7b1 expression = experiment: gene expression after 10% CSE + LPS stimulation: Cyp7b1; format: cell-based, mouse; settings: 10% CSE + 10 μg/mL LPS
Method: (§4) The cells were incubated for 24h at 37° C., 5% CO2, in a 24 well-plate with or without 10% cigarette smoke extract (CSE, 10%)+lipopolysaccharide (LPS, 10 μg/mL), supplemented or not with the 18 CYP7B1 inhibitors (0.3 and 1 μM). B cells were purified from the spleens of C57BL/6J mice by negative selection (B cell Isolation Kit, mouse, Miltenyi Biotec). Freshly isolated B cells at 2.0×10^6/mL in 100 μL were activated by unconjugated AffiniPure F(ab′)2 Fragment Goat anti-mouse IgM, μchain specific antibody (10 μg/mL, 115-006-020, Jackson Immunoresearch Laboratories) for 1 hr at 37° C. in 5.0 μm pore sized transwell inserts (Permeable Polycarbonate Membrane Inserts, Corning, Fisher Scientific). Migrated B cells were collected, and counted by fluorescence-activated cell sorting (FACS) (Trucount tubes, BD Biosciences).
as §2, with “10 ng” for “1 ug”, “Primer sequences can be found in Table 1.” left out, “18S” for “HPRT1 or Hprt1”, “2^−ΔCt.” for “2^−[…]Ct.”

[2] = tested on: C57BL/6 mice exposed to cigarette smoke; experiment: CS induced COPD model, clotrimazole therapeutic dosing; format: in vivo, mouse
Method: Experimental design: In the early treatment group C57BL/6 mice were exposed to filtered air (FA) or cigarette smoke (CS) for 4 months and treated with clotrimazole (i.p. 80 mg/Kg 3 times per week) from months 2 to 4 or oil controls. In the late treatment group C57BL/6 mice were exposed to FA or CS for 6 months and treated with clotrimazole from months 4 to 6 or oil controls.
8-12 week old mice were used in all experiments. For the CS induced COPD model, mice were exposed to 100% mainstream CS (John et al., Clinical science 126, 207-221 (2014)) at a particle concentration of 500 mg/m^3, generated from 3R4F research cigarettes (Filter removed, Tobacco Research Institute, University of Kentucky), for 50 min twice/day, 5 days/week for 4 or 6 months. Mice exposed to filtered air were used as controls. For the elastase induced iBALT-independent COPD model, mice were instilled oropharyngeally with a single application of 80 U/Kg body weight Porcine Pancreatic Elastase (PPE) (Sigma Aldrich) in 80 μl PBS. Mice treated with 80 μl PBS were included as controls. For Cyp7b1 inhibition, clotrimazole (Sigma Aldrich) 10 mM in DMSO, was further diluted in Corn oil (Mazola, Unilever) and applied i.p. at a dose of 80 mg/Kg body weight 3 times/week for two months. Mice were treated after two or four months of CS exposure and smoked for a further two months in parallel with the clotrimazole treatment.
After lung function analysis lungs were lavaged with 3×500 ul aliquots of sterile PBS (Gibco, Life Technologies) supplemented with Complete Protease Inhibitor Cocktail tablets (Roche Diagnostics). Cells were pelleted at 400 g for 20 min and resuspended in 500 μl RPMI-1640 medium (Gibco, Life Technologies) for the total cell count using a Neubauer Chamber. Cytospins of the cell suspension were then prepared and stained using May-Grünwald-Giemsa for differential cell counting (200 cells/sample) using morphological criteria. BAL fluid was retained for mass spectrometry analysis.
H&E stained tissue sections were analyzed by design-based stereology using an Olympus BX51 light microscope equipped with the new Computer Assisted Stereological Toolbox (newCAST, Visiopharm) as described (John-Schuster et al., American journal of physiology. Lung cellular and molecular physiology 307, L692-706 (2014)), by readers blinded to the study groups. Briefly, for mean chord length (MCL) measurements, 20 frames were selected randomly across multiple sections by the software, using the ×20 objective, and superimposed by a line grid and points. The intercepts of lines on alveolar wall (Lsepta) and points localized on air space (Pair) were counted and calculated as MCL=ΣPair××L(p)/ΣLsepta×0.5, where L(p) is the line length per point. The volume of inflammation (V) was quantified in 50 frames, using the ×40 objective, by counting points hitting inflammatory cell zones (Pinflam). For calculation, the Pinflam were referenced to intercepts of lines with both airways and vessels (Iairway/vessel): V=ΣPinflam×L(p)/ΣIairway/vessel. Further, airway, vessel or septum associated inflammation quantification was classified by the location of the inflammation, and was calculated referring to intercept of lines with airway, vessel, or both, respectively.

Ch25h expression = experiment: gene expression after 10% CSE + LPS stimulation: Ch25h; format: cell-based, mouse; settings: 10% CSE + 10 μg/mL LPS
Method: as §4
as §2, with “10 ng” for “1 ug”, “Primer sequences can be found in Table 1.” left out, “18S” for “HPRT1 or Hprt1”, “2^−ΔCt.” for “2^−[…]Ct.”

Cyp7b1 mRNA = experiment: quantitative real time RT-PCR of CSE treated airways: Cyp7b1; format: cell-based, mouse; settings: CSE treated airways dissected from C57BL/6 mice, 1 μM clotrimazole
Method: as §2, §1, §3

Tnf expression = experiment: gene expression after 10% CSE + LPS stimulation: Tnf; format: cell-based, mouse; settings: 10% CSE + 10 μg/mL LPS
Method: as §4
as §2, with “10 ng” for “1 ug”, “Primer sequences can be found in Table 1.” left out, “18S” for “HPRT1 or Hprt1”, “2^−ΔCt.” for “2^−[…]Ct.”

[3] = early and late treatment groups, i.p. 80 mg/Kg 3 times per week
[4] = early treatment: CS 4 months, i.p. 80 mg/Kg 3 times per week from months 2 to 4
[5] = late treatment: CS 6 months, i.p. 80 mg/Kg 3 times per week from months 4 to 6

Structure (SMILES): Clc1ccc(COC(Cn2ccnc2)c2ccc(Cl)cc2Cl)c(Cl)c1 (racemic) [Miconazole, (RS)-1-(2-(2,4-Dichlorobenzyloxy)-2-(2,4-dichlorophenyl)ethyl)-1H-imidazole]
migration of activated B cells towards culture supernatant from CSE-treated airways ([1]; compound 1 μM): impaired B cell migration

Structure (SMILES): CC(C)c1nc(CN(C)C(=O)N[C@H](C(=O)N[C@@H](Cc2ccccc2)C[C@H](O)[C@H](Cc2ccccc2)NC(=O)OCc2cncs2)C(C)C)cs1 [Ritonavir, 1,3-thiazol-5-ylmethyl N-[(2S,3S,5S)-3-hydroxy-5-[(2S)-3-methyl-2-{[methyl({[2-(propan-2-yl)-1,3-thiazol-4-yl]methyl})carbamoyl]amino}butanamido]-1,6-diphenylhexan-2-yl]carbamate]
migration of activated B cells towards culture supernatant from CSE-treated airways ([1]; compound 0.1 μM): impaired B cell migration
migration of activated B cells towards culture supernatant from CSE-treated airways ([1]; compound 1 μM): impaired B cell migration

Structure (SMILES): CC(C)(C(=O)c1cccnc1)c1cccnc1 [Metyrapone, 2-methyl-1,2-di(pyridin-3-yl)propan-1-one]
migration of activated B cells towards culture supernatant from CSE-treated airways ([1]; compound 1 μM): impaired B cell migration

induction of Cyp7b1 expression (Cyp7b1 expression): inhibited
induction of Cyp7b1 expression (Cyp7b1 expression; listed as Clotrimazole): inhibits the gene expression
Structure (SMILES): Clc1ccccc1C(c1ccccc1)(c1ccccc1)n1ccnc1 [clotrimazole, 1-[(2-Chlorophenyl)(diphenyl)methyl]-1H-imidazole]
Ch25h mRNA abundance (Ch25h mRNA): did not affect Ch25h levels
migration of activated B cells towards culture supernatant from CSE-treated airways ([1]; compound 1 μM): significantly impaired the ability of activated B cells to migrate; also recorded: impairs B cell migration
cigarette smoke-induced COPD [2, 3]: protects against and reverses cigarette smoke-induced COPD
lung inflammatory responses following exposure to chronic cigarette smoke [2, 3]: does not attenuate lung inflammatory responses
emphysema development (mean chord length) [2, 4]: lack of emphysema development
iBALT formation [2, 4]: significantly reduced iBALT formation
lung volume [2, 4]: no deterioration in lung volume
lymphocyte cell numbers in BAL fluid [2, 4]: reduced macrophage and lymphocyte cell numbers
macrophage cell numbers in BAL fluid [2, 4]: reduced macrophage and lymphocyte cell numbers
emphysema (mean chord length) [2, 5]: attenuated
iBALT [2, 5]: attenuated
lung volume [2, 5]: reduced lung volume
macrophage cell numbers in BAL fluid [2, 5]: reduced macrophage cell numbers
induction of Ch25h expression (Ch25h expression): inhibited
induction of Ch25h expression (Ch25h expression; listed as Clotrimazole): inhibits the gene expression
Cyp7b1 mRNA abundance (Cyp7b1 mRNA): sufficient to reduce Cyp7b1 mRNA expression
induction of Tnf (TNFα) expression (Tnf expression): inhibited
induction of Tnf (TNFα) expression (Tnf expression; listed as Clotrimazole): inhibits the gene expression
